What was measured:
CREB-binding protein [1] = biological target: T1, CREB-binding protein (Homo sapiens, UniProt Q92793); experiment: CBP Fluorescence Resonance Energy Transfer (FRET)
[2] = biological target: T2, Bromodomain-containing protein 4 (Homo sapiens, UniProt O60885); experiment: BRD4 Fluorescence Polarization (FP)
[3] = biological target: T2, Bromodomain-containing protein 4; experiment: ITC
CREB-binding protein [4] = biological target: T1, CREB-binding protein; experiment: ITC

T1 sequence (Q92793 whole entry): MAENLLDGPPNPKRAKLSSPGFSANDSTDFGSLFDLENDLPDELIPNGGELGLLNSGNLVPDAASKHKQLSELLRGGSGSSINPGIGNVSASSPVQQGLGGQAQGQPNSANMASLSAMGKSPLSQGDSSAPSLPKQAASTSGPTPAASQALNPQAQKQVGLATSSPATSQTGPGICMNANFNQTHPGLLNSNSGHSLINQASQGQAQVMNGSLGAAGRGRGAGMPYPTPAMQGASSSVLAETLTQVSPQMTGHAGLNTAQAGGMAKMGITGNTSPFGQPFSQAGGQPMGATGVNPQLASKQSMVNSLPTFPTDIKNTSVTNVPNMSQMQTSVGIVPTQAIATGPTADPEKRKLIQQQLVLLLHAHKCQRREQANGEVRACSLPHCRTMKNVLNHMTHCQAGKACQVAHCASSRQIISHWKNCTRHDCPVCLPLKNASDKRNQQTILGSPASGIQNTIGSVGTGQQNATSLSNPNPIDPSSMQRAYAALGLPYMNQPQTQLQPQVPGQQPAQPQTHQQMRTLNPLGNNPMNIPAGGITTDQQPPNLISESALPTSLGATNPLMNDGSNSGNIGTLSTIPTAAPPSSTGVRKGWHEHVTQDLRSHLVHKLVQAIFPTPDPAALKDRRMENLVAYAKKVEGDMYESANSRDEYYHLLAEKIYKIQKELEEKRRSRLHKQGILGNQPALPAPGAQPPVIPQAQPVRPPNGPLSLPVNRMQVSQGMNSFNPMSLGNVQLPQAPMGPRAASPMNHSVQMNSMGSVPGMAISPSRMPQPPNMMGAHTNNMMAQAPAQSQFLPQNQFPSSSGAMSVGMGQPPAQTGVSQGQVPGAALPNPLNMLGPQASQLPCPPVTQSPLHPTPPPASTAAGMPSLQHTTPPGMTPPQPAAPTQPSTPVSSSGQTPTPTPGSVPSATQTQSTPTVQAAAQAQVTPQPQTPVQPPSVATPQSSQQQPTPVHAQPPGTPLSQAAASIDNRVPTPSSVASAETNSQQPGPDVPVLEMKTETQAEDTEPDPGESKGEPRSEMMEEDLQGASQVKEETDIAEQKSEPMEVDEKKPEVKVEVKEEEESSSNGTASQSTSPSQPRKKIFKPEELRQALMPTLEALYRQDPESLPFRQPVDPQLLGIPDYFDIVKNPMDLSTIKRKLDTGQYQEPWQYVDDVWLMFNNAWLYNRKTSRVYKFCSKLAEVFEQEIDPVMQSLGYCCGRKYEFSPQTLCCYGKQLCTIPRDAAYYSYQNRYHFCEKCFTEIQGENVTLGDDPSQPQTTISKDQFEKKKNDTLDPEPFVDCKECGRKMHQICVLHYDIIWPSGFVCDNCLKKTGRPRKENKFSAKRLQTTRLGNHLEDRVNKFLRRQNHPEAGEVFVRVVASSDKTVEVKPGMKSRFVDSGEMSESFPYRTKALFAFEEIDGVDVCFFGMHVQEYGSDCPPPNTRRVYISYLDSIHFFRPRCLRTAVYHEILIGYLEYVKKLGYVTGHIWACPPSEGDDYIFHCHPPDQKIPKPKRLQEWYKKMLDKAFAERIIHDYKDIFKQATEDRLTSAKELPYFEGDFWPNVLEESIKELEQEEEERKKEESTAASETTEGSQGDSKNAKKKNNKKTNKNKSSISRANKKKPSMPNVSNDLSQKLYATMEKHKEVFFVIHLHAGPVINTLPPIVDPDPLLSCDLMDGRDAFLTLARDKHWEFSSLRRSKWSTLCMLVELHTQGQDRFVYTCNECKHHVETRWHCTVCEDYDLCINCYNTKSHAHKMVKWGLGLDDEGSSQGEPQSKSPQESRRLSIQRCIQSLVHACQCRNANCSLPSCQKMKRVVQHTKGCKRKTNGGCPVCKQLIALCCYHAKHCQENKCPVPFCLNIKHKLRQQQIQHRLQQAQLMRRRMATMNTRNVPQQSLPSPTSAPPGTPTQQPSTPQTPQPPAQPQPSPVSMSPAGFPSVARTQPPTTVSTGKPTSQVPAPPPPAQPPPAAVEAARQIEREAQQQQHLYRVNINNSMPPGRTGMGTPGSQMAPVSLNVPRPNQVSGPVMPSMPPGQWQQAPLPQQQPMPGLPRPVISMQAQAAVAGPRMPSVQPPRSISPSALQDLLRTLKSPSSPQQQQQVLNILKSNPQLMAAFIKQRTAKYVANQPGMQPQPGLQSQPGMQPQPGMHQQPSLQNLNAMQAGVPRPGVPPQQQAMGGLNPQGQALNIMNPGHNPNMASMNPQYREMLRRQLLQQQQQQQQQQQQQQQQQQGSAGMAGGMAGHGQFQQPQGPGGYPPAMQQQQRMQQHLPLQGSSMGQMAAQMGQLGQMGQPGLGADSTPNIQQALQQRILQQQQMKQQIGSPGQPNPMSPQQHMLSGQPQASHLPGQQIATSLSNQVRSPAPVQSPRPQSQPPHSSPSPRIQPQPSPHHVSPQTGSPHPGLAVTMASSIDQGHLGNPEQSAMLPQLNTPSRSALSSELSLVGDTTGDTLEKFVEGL

| Structure (SMILES) | IC50 (CREB-binding protein [1]) [µM] | IC50 [2] [µM] | Kd [3] [µM] | Kd (CREB-binding protein [4]) [µM] |
| --- | --- | --- | --- | --- |
| COc1ccc(CCc2nc3c(C)c(-c4c(C)noc4C)c(C)cc3n2CCN2CCOCC2)cc1 [ISOX-INACT] | 10.6 | > 120 |  |  |
| CCCOc1ccc(CCc2nc3cc(-c4c(C)noc4C)ccc3n2CCN2CCOCC2)cc1 [PF-CBP1] | 0.13 | 18.1 | > 20 | 0.19 |

From BindingDB's records for doi:10.1016/j.chembiol.2015.10.013 (Pfizer, 2015)
